Results on eleven compounds are retold here after patent publication US12559504B2, “Benzotriazole derivative” (UBE CORPORATION, priority 2019, dated 2026).

Data set [1] addresses T1, GST fusion human Keap1 (amino acid residue: 325-624) protein (Homo sapiens, UniProt Q14145).
T1 construct: GST fusion human Keap1 (amino acid residue: 325-624) protein; purchased Protein tech Ag0779
Description: Keap1-Nrf2 binding inhibition test (fluorescence polarization). Particulars: compound concentration of 100 nM; read-out: inhibition rate. In outline: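 Fluorescence polarization with FITC-labelled Nrf2 peptide (FITC-Ahx-LDEETGEFL-NH2) and GST-human Keap1 (325-624) in 20 mM Tris pH 7.5, 150 mM NaCl, 0.05% Tween 20, 5 mM DTT, BSA; 30 min at room temperature, ex 482/em 530 nm. Percent inhibition at 100 nM compound, Keap1-free wells = 100%.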
On the technique in general: Polarisation of emitted light reports the rotation of a fluorescent probe.

For data set [2], the system named is NQO1. Description: NQO1 expression induction test in mouse kidney (single administration). Format: in vivo. Conditions: Mus musculus, po, 6 h, BALB/c mouse kidney, 6 hours after administration, ratio to control group. The gist of the method: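 Female BALB/c mice received a single oral dose of compound in 0.5% methylcellulose, with untreated mice as controls. Six hours later, left-kidney NQO1 mRNA was measured by SYBR real-time RT-PCR normalised to GAPDH. Induction was expressed as the ratio of mean treated to mean control expression.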

Data set [3] relates to NQO1. Description: NQO1 enzyme induction test (in vitro) in Hepa1c1c7 cells. Format: cell-based. Conditions: Mus musculus, Hepa-1c1c7, 48 h, concentration to elevate the NQO1 activity by 1.5 times, about 48 hours, read-out: EC150. The method, then: Each NQO1 assay was carried out by modifying a known method (Anal Biochem 1998; 169: 328-, Methods Enzymol 2004; 382: 243-). Hepa1c1c7 cells (mouse hepatocyte line manufacture by DS Pharma Biomedical Co., Ltd., REF. No. 95090613) were cultured (5% CO2, 37° C.). The cells were cultured in MEMα (manufactured by FUJIFILM Wako Pure Chemical Corporation, REF. 135-15175) medium comprising 10% FBS (manufactured by GIBCO, REF. 10082) and […]/streptomycin/amphotericin B (manufactured by GIBCO, REF. 15240), and dispensed into a 96 well plate (manufactured by Costar, REF. 3610) at 2.0×10^3 cells/well. On the next day, test compound (final concentration of […]: 0.1%) dissolved into DMSO (manufactured by FUJIFILM Wako Pure Chemical Corporation, REF. 043-07216) was added to each well, and the plate was further cultured for about 48 hours.
A cell lysate manufactured by Cell signaling Technology, Inc. (REF. 9803) with the addition of a Protease Inhibitor manufactured by Roche Diagnostics K.K. (REF. 11-873580001) was used. A reaction solution (which is a solution comprising trishydrochloric acid (25 mM), albumin […], Tween-20 (0.01%), glucose-6-phosphate dehydrogenase (2 U/mL), flavin-adenine dinucleotide (5 μM), glucose-6-phosphate (1 μM), nicotinamide adenine dinucleotide phosphate (30 μM), 3-(4,5-dimethyl-2-thiazolyl)-2,5-diphenyltetrazolium bromide (MTT) (0.03%), and menadione (50 μM)), and a stop solution (which is a solution comprising dicumarol (0.3 mM) and potassium dihydrogen phosphate (5 mM), pH 7.4) were prepared. After the medium was removed, cell lysate (50 μL) was added thereto, and the resulting mixture was shaken at room temperature for 20 minutes. The reaction solution (200 μL) was added thereto, and the resulting mixture was left to stand at room temperature for 5 minutes. The stop solution (50 μL) was added thereto, and absorbance at 540 nm (reference 750 nm) was measured.
Cell number was measured by Cell Titer Glo assay (manufactured by Promega Corporation, REF. G9242) by using another plate prepared according to the same conditions as those described above, and correction of absorbance was carried out. The test result was analyzed by Excel, and the EC150 value which is the concentration to elevate the NQO1 activity by 1.5 times was calculated.

Data set [4] can be described thus: Metabolism test using human liver microsome fractions. Particulars: human liver microsomes, test compound 10 μmol/L, NADPH and UDP-glucuronic acid, 37° C. Format: in vitro ADME. The gist of the method: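 Human or monkey liver microsomes (1 mg protein) with NADPH-regenerating system plus UDP-glucuronic acid/UGT mix, 37 °C; compound at 10 μmol/L final. Samples at 0–30 min quenched in acetonitrile, UV-HPLC; elimination rate (pmol/min/mg-P) from linear slope of residual amount over time.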
Background: Microsomes from liver hold many membrane-bound enzymes, among them those of drug oxidation.

As usually defined, the inhibition is how much of the control response was suppressed. The fold induction is the signal under treatment as a multiple of the control signal.

T1 sequence (Q14145 325-624): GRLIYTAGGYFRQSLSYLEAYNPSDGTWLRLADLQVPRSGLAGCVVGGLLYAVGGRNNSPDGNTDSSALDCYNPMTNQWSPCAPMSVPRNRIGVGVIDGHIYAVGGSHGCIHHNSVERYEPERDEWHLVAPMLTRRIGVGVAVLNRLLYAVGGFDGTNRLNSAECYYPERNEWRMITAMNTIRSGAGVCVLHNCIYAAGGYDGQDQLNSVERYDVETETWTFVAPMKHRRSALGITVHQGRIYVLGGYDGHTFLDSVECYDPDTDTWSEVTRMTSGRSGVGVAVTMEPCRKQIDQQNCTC

Turning to `CC[C@@H]1CN(Cc2cc(C(c3ccc4c(nnn4C)c3C)C(C)(C)C(=O)O)ccc2C)Cc2cc3c(cc2O1)SCC3` (stereo partly drawn) [Example 73-(b), 3-(1,4-dimethyl-1H-benzo[d][1,2,3]triazol-5-yl)-3-(3-(((R)-2-ethyl-2,3,7,8-tetrahydrothieno[2′,3′:4,5]benzo[1,2-f][1,4]oxazepin-4(5H)-yl)methyl)-4-methylphenyl)-2,2-dimethylpropanoic Acid], the inhibition at 0.1 µM in data set [1] was ≥ 50%. In addition, in data set [2], the fold induction at 20 mg/kg was > 6. The EC (1.5-fold NQO1 activity) in data set [3] was 0.005 to 0.05 µM. For the same compound, the Human metabolic rate result in data set [4] is “C (150≤metabolic rate<200 pmol/min/mg protein)”.
`CC[C@@H]1CN(Cc2cc(C(c3ccc4c(nnn4C)c3C)C(C)(C)C(=O)O)ccc2C)Cc2ccc3c(c2O1)OC(F)(F)O3` (stereo partly drawn) [Example 2-(b), 3-(1,4-dimethyl-1H-benzo[d][1,2,3]triazol-5-yl)-3-(3-(((R)-9-ethyl-2,2-difluoro-8,9-dihydro-[1,3]dioxolo[4′,5′:3,4]benzo[1,2-f][1,4]oxazepin-7(6H)-yl)methyl)-4-methylphenyl)-2,2-dimethylpropanoic Acid]: the inhibition at 0.1 µM in data set [1] is ≥ 50%. Further, in data set [2], the fold induction at 30 mg/kg is 3 to 6. The EC (1.5-fold NQO1 activity) in data set [3] fell in the range of 0.0005 to 0.005 µM. For the same compound, in data set [4], the Human metabolic rate entry was “A (metabolic rate<100 pmol/min/mg protein)”.
Turning to `CC[C@@H]1CN(Cc2cc(C(c3ccc4c(nnn4C)c3C)C(C)(C)C(=O)O)ccc2C)Cc2c(ccc3cnn(C)c23)O1` (stereo partly drawn) [Example 21-(b), 3-(1,4-dimethyl-1H-benzo[d][1,2, 3)triazol-5-yl)-3-(3-(((R)-7-ethyl-1-methyl-1,7,8,10-tetrahydro-9H-(1,4]oxazepino[7,6-g]indazol-9-yl)methyl)-4-methylphenyl)-2,2-dimethylpropanoic Acid], the inhibition at 0.1 µM in data set [1] was ≥ 50%. The fold induction at 30 mg/kg in data set [2] is ≤ 3. The EC (1.5-fold NQO1 activity) in data set [3] was 0.05 to 0.5 µM. In addition, the Human metabolic rate entry in data set [4] is recorded as “D (200≤metabolic rate<250 pmol/min/me protein)”.
Take `CC[C@@H]1CN(Cc2cc(C(c3ccc4c(nnn4C)c3C)C(C)(C)C(=O)O)ccc2C)Cc2cc3c(F)cccc3cc2O1` (stereo partly drawn) [Example 54-(b), 3-(1,4-dimethyl-1H-benzo[d][1,2,3]triazol-5-yl)-3-(3-(((R)-2-ethyl-7-fluoro-2,3-dihydronaphtho[2,3-f][1,4]oxazepin-4(5H)-yl)methyl)-4-methylphenyl)-2,2-dimethylpropanoic Acid]: in data set [1], the inhibition at 0.1 µM is ≥ 50%. The fold induction at 30 mg/kg in data set [2] lay within 3 to 6. The EC (1.5-fold NQO1 activity) in data set [3] lay in the range of 0.005 to 0.05 µM. Also, the Human metabolic rate entry in data set [4] is given as “B (100≤metabolic rate<150 pmol/min/mg protein)”.
For `CC[C@@H]1CN(Cc2cc(C(c3ccc4c(nnn4C)c3C)C(C)(C)C(=O)O)ccc2C)Cc2c(ccc3ccccc23)O1` (stereo partly drawn) [Example 16-(b), 3-(1,4-dimethyl-1H-benzo[d][1,2,3]triazol-5-yl)-3-(3-(((R)-4-ethyl-3,4-dihydronaphtho[1,2-f][1,4]oxazepin-2(1H)-yl)methyl)-4-methylphenyl)-2,2-dimethylpropanoic Acid], in that order: ≥ 50%, ≤ 3, 0.05 to 0.5 µM and “E (metabolic rate≥250 pmol/min/mg protein)”.
On to `CC[C@@H]1CN(Cc2cc(C(c3ccc4c(nnn4C)c3C)C(C)(C)C(=O)O)ccc2C)Cc2cc3c(Cl)cccc3cc2O1` (stereo partly drawn) [Example 68-(b), 3-(3-(((R)-7-chloro-2-ethyl-2,3-dihydronaphtho[2,3-f][1,4]oxazepin-4 (5H)-yl)methyl)-4-methylphenyl)-3-(1,4-dimethyl-1H-benzo[d][1,2,3]triazol-5-yl)-2,2-dimethylpropanoic Acid], for which the inhibition at 0.1 µM in data set [1] is ≥ 50%. In addition, the fold induction at 20 mg/kg in data set [2] is 3 to 6. The EC (1.5-fold NQO1 activity) in data set [3] lay within 0.005 to 0.05 µM. The Human metabolic rate result in data set [4] is “A (metabolic rate<100 pmol/min/mg protein)”.
Take `CC[C@@H]1CN(Cc2cc(C(c3ccc4c(nnn4C)c3C)C(C)(C)C(=O)O)ccc2C)Cc2c(ccc3cccnc23)O1` (stereo partly drawn) [Example 17-(b), 3-(1,4-dimethyl-1H-benzo[d][1,2,3]triazol-5-yl)-3-(3-(((R)-8-ethyl-8,9-dihydro-[1,4]oxazepino[7,6-h]quinolin-10 (11H)-yl)methyl)-4-methylphenyl)-2,2-dimethylpropanoic Acid]: the inhibition at 0.1 µM in data set [1] is ≥ 50%. The fold induction at 30 mg/kg in data set [2] is 3 to 6. Moreover, the EC (1.5-fold NQO1 activity) in data set [3] is 0.005 to 0.05 µM. Besides, the Human metabolic rate entry in data set [4] is recorded as “E (metabolic rate≥250 pmol/min/mg protein)”.
The corresponding values for `CC[C@@H]1CN(Cc2cc(C(c3ccc4c(nnn4C)c3C)C(C)(C)C(=O)O)ccc2C)Cc2cc3cnccc3cc2O1` (stereo partly drawn) [Example 53, 3-(1,4-dimethyl-1H-benzo[d][1,2,3]triazol-5-yl)-3-(3-(((R)-2-ethyl-2,3-dihydro-[1,4]oxazepino[7,6-g]isoquinolin-4 (5H)-yl)methyl)-4-methylphenyl)-2,2-dimethylpropanoic Acid] are ≥ 50%, > 6, 0.0005 to 0.005 µM and “C (150≤metabolic rate<200 pmol/min/mg protein)”.
Consider `CC[C@@H]1CN(Cc2cc(C(c3ccc4c(c3)nnn4C)C(C)(C)C(=O)O)ccc2C)Cc2cc3ncccc3cc2O1` (stereo partly drawn) [Example 82-(b), 3-(3-(((R)-2-ethyl-2,3-dihydro-[1,4]oxazepino[7,6-g]quinolin-4 (5H)-yl)methyl)-4-methylphenyl)-2,2-dimethyl-3-(1-methyl-1H-benzo[d][1,2,3]triazol-5-yl) propanoic Acid], for which the inhibition at 0.1 µM in data set [1] is ≥ 50%. The fold induction at 20 mg/kg in data set [2] was > 6. Besides, the EC (1.5-fold NQO1 activity) in data set [3] lay within 0.005 to 0.05 µM. Further, the Human metabolic rate result in data set [4] is recorded as “B (100≤metabolic rate<150 pmol/min/mg protein)”.
As to `CC[C@@H]1CN(Cc2cc(C(c3ccc4c(nnn4C)c3C)C(C)(C)C(=O)O)ccc2C)Cc2cc3cn[nH]c3cc2O1` (stereo partly drawn) [Example 15-(b), 3-(1,4-dimethyl-1H-benzo[d][1,2,3]triazol-5-yl)-3-(3-(((R)-8-ethyl-1,5,7,8-tetrahydro-6H-[1,4]oxazepino[6,7-f]indazol-6-yl)methyl)-4-methylphenyl)-2,2-dimethylpropanoic Acid], the inhibition at 0.1 µM in data set [1] was ≥ 50%. The fold induction at 30 mg/kg in data set [2] is 3 to 6. The EC (1.5-fold NQO1 activity) in data set [3] was 0.0005 to 0.005 µM. In data set [4], the Human metabolic rate result is “E (metabolic rate≥250 pmol/min/mg protein)”.
On to `CC[C@@H]1CN(Cc2cc(C(c3ccc4c(nnn4C)c3C)C(C)(C)C(=O)O)ccc2C)Cc2ccccc2O1` (single isomer, unassigned) [Example C1, reference compound], for which the inhibition at 0.1 µM in data set [1] was ≥ 50%. The fold induction at 10 mg/kg in data set [2] (Dose 10 mg/kg) is ≤ 3. Besides, in data set [3], the EC (1.5-fold NQO1 activity) fell in the range of 0.005 to 0.05 µM. The Human metabolic rate entry in data set [4] is given as “C (150≤metabolic rate<200 pmol/min/mg protein)”.
